# Test results reported in ChEMBL document CHEMBL1255179, “Fatty acid synthase inhibitors of phenolic constituents isolated from Garcinia mangostana” (Bioorg Med Chem Lett, 2010).
# Target: Fatty acid synthase (Gallus gallus) (UniProt P12276)
# Test: Inhibition of FAS
# Fatty acid synthase (Gallus gallus), sequence (P12276 whole entry, looked up): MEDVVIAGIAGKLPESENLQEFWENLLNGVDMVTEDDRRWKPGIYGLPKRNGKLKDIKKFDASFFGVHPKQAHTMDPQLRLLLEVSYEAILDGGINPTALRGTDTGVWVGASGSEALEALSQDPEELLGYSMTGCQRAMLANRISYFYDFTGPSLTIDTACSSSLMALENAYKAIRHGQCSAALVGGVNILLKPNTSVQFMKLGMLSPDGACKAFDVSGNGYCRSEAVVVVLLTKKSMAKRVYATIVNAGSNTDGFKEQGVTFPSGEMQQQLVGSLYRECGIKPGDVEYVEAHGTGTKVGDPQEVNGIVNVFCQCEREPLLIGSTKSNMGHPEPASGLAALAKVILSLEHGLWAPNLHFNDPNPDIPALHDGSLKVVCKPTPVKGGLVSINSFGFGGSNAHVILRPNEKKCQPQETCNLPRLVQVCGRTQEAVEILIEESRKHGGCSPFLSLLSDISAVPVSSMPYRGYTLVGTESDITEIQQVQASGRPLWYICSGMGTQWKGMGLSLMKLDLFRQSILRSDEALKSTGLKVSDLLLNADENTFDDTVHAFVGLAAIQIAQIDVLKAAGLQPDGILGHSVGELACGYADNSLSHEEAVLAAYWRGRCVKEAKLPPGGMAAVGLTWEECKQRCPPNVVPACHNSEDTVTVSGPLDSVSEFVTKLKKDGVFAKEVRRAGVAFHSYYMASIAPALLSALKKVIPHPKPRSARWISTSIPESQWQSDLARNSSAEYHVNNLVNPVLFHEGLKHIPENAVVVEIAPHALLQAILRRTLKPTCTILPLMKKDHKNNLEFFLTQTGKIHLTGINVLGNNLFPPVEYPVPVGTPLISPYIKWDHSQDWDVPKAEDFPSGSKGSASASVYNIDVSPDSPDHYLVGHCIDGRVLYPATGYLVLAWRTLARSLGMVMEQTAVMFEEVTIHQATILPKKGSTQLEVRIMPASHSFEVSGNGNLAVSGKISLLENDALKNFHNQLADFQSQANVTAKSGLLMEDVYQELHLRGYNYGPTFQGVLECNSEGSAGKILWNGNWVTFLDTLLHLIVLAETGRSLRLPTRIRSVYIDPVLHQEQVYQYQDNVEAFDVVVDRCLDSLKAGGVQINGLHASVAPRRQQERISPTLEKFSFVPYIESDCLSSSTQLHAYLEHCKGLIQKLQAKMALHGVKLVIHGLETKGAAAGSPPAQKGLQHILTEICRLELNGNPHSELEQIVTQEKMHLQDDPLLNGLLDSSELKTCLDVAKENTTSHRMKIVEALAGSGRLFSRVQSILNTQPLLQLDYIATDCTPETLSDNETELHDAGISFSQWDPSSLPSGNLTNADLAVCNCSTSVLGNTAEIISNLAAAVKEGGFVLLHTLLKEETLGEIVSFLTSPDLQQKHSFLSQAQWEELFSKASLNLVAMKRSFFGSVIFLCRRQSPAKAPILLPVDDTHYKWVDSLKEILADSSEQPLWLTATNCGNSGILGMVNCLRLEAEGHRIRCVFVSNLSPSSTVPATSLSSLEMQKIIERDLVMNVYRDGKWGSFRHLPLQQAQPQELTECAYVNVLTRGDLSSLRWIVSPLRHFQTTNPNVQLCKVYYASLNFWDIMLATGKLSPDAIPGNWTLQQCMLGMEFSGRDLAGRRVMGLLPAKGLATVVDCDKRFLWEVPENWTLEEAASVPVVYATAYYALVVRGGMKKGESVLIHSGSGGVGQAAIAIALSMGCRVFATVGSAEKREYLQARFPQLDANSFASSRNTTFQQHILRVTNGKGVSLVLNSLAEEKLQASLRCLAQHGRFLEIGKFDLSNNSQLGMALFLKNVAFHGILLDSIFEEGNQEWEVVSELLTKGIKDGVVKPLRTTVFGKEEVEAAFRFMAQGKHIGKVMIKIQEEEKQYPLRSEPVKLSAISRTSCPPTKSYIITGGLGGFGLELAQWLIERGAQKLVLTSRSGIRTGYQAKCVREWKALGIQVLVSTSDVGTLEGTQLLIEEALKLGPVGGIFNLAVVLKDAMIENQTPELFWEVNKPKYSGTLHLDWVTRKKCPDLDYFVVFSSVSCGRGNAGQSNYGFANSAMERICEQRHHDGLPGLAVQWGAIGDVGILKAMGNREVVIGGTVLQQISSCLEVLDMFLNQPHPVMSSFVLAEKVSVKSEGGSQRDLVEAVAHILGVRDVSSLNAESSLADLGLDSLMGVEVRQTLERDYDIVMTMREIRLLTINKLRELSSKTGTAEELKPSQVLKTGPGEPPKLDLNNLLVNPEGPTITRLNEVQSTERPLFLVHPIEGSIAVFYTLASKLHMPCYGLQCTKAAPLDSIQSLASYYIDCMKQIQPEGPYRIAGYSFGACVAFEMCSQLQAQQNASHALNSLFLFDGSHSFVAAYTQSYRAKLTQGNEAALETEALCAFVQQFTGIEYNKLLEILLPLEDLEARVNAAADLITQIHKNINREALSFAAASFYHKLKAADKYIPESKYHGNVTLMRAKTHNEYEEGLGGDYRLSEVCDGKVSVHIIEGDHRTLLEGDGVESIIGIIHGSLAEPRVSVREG
row,Compound,IC50 [µM]
1,O=C(c1cccc(O)c1)c1cc(O)c(O)c(O)c1,14.8
2,O=C(c1cc(O)cc(O)c1)c1c(O)cc(O)cc1O,8.59
3,O=c1c2cc(O)c(O)cc2oc2cc(O)cc(O)c12,17.9
4,CC(C)=CCc1c(O)cc2oc3cc(O)c(O)c(CC=C(C)C)c3c(=O)c2c1O,1.24
5,COc1cc2oc3cc(O)c(OC)c(CC=C(C)C)c3c(=O)c2c(O)c1CC=C(C)C,24.8
6,O=c1c2cc(O)ccc2oc2cc(O)cc(O)c12,41
7,COc1cc(CCCO)cc2cc(-c3ccc4c(c3)OCO4)oc12 [EGONOL],91.1
8,O=C(O[C@@H]1Cc2c(O)cc(O)cc2O[C@@H]1c1cc(O)c(O)c(O)c1)c1cc(O)c(O)c(O)c1 [EPIGALOCATECHIN GALLATE],52
9,CC(C)=CCc1c(O)cc2oc3c(CC=C(C)C)c(O)c(O)c(CC=C(C)C)c3c(=O)c2c1O [GARCINONE E],3.3
10,COc1c(O)cc2oc3cc4c(c(O)c3c(=O)c2c1CC=C(C)C)C=CC(C)(C)O4 [MANGOSTANIN],40.6
11,COc1c(O)cc2oc3cc(O)c(CC=C(C)C)c(O)c3c(=O)c2c1CC=C(C)C [MANGOSTIN],5.54
12,C[C@@H]1O[C@@H](O[C@@H]2C(=O)c3c(O)cc(O)cc3O[C@H]2c2cc(O)cc(O)c2)[C@H](O)[C@H](O)[C@H]1O [NEOSMITILBIN],49.2

# Target: Fatty acid synthase (Gallus gallus) (UniProt P12276)
# Test: Inhibition of FAS at 1000 uM
row,Compound,IC50 [µM]
1,Oc1cc(O)c2c(c1)O[C@@H](c1ccc(O)c(O)c1)[C@@H](O)C2 [(+)-EPICATECHIN],> 1000
